In ChEMBL document CHEMBL1151541, “Modified thrombin receptor-agonist peptide ligands. Synthesis and conformational analysis of analogs of the N-terminal tripeptide region” (1995) one finds EC50 data, which are given here for 24 molecules.

The assay is filed under the species Homo sapiens. Briefly: Agonist activity in human platelet aggregation. Format: functional. Conditions: read-out: ED50 (the source's name).

pEC50: −log10 of the molar value. Numbered stars: 1 amine (or outer) side, 2 acyl side, 3 side chain; on linkers, the order of the positions; unused ones are H or OH. Square brackets hold non-standard residues; d marks the D form. Peptide text beside a SMILES is read from it. * marks the point of attachment. ξ: configuration not given here. X2 = N[C@@H](CO)C(=O)CN([C@@H](Cc1ccccc1)C(=O)[*:2])[*:1]; X3 = C[C@@H](c1ccccc1)[C@H](N[*:1])C(=O)[*:2]; NMe2Phe = CN(C)[C@@H](Cc1ccccc1)C(=O)*; NEtPhe = CCN[C@@H](Cc1ccccc1)C(=O)O; X1 = CCN(CC)[C@@H](Cc1ccccc1)C(=O)*; NMeF = CN[C@@H](Cc1ccccc1)C(=O)O; Tic = O=C(O)[C@@H]1Cc2ccccc2CN1; Aib = CC(C)(N)C(=O)O; Propionyl = CCC(=O)*; Butyryl = CCCC(=O)*; ξLac = CC(O)C(=O)O; For = O=C*

For the molecule `CC(C)C[C@H](NC(=O)[C@H]1CCCN1C(=O)[C@@H](NC(=O)[C@@H](N)CO)[C@H](C)c1ccccc1)C(=O)N[C@@H](CCCN=C(N)N)C(=O)N[C@@H](CC(N)=O)C(=O)O`, the pEC50 is 5.80.

Take `CCN(CC)[C@@H](Cc1ccccc1)C(=O)N[C@@H](CC(C)C)C(=O)N[C@@H](CC(C)C)C(=O)N[C@@H](CCCN=C(N)N)C(=O)N[C@@H](CC(N)=O)C(=O)O` (X1-LLRN-OH): the pEC50 was under 3.00.

Consider `CNC(=O)C[C@H](NC(=O)[C@H](CCCN=C(N)N)NC(=O)[C@H](CC(C)C)NC(=O)[C@H](CC(C)C)NC(=O)[C@H](Cc1ccccc1)NC(=O)C(C)O)C(=O)O` (some centres undefined) (H-[ξLac]FLLRD(NHMe)-OH), for which the pEC50 was 4.31.

Regarding `CC(C)C[C@H](NCC(=O)[C@H](Cc1ccccc1)NC(=O)[C@@H](N)CO)C(=O)N[C@@H](CC(C)C)C(=O)N[C@@H](CCCN=C(N)N)C(=O)N[C@@H](CC(N)=O)C(=O)O`, the pEC50 was under 3.00.

As to `CCC(=O)N[C@@H](Cc1ccccc1)C(=O)N[C@@H](CC(C)C)C(=O)N[C@@H](CC(C)C)C(=O)N[C@@H](CCCN=C(N)N)C(=O)N[C@@H](CC(N)=O)C(=O)O` (Propionyl-FLLRN-OH), the pEC50 is 4.46.

For the molecule Ac-FLLRN-OH, the pEC50 is 4.07.

Consider H-SFGLRN-OH, for which the pEC50 was 4.83.

For the molecule `CC(C)C[C@H](NC(=O)[C@H](Cc1ccccc1)NC=O)C(=O)N[C@@H](CC(C)C)C(=O)N[C@@H](CCCN=C(N)N)C(=O)N[C@@H](CC(N)=O)C(=O)O` (For-FLLRN-OH), the pEC50 is 4.20.

For `CC(C)C[C@H](NC(=O)[C@H]1CCCN1C(=O)[C@@H](NC(=O)[C@@H](N)CO)[C@@H](C)c1ccccc1)C(=O)N[C@@H](CCCN=C(N)N)C(=O)N[C@@H](CC(N)=O)C(=O)O`, the pEC50 was 3.67.

Regarding `CCCC(=O)N[C@@H](Cc1ccccc1)C(=O)N[C@@H](CC(C)C)C(=O)N[C@@H](CC(C)C)C(=O)N[C@@H](CCCN=C(N)N)C(=O)N[C@@H](CC(N)=O)C(=O)O` (Butyryl-FLLRN-OH), the pEC50 is 4.12.

As to `CC(C)C[C@H](NC(=O)[C@H](CC(C)C)NC(=O)[C@H](Cc1ccccc1)NC(=O)[C@@H](N)CO)C(=O)N[C@@H](CCCN=C(N)N)C(=O)N[C@@H](CC(N)=O)C(=O)O`, the pEC50 was 6.04.

Regarding `CC(C)C[C@H](NC(=O)[C@H](Cc1ccccc1)NCC(=O)[C@@H](N)CO)C(=O)N[C@@H](CC(C)C)C(=O)N[C@@H](CCCN=C(N)N)C(=O)N[C@@H](CC(N)=O)C(=O)O` (H-[X2]LLRN-OH), the pEC50 was 3.42.

As for `CCN[C@@H](Cc1ccccc1)C(=O)N[C@@H](CC(C)C)C(=O)N[C@@H](CC(C)C)C(=O)N[C@@H](CCCN=C(N)N)C(=O)N[C@@H](CC(N)=O)C(=O)O` (H-[NEtPhe]LLRN-OH), the pEC50 is under 3.00.

For `CC(C)C[C@H](NC(=O)[C@H](CC(C)C)NC(=O)[C@H](Cc1ccccc1)N(C)C)C(=O)N[C@@H](CCCN=C(N)N)C(=O)N[C@@H](CC(N)=O)C(=O)O` (NMe2Phe-LLRN-OH), the pEC50 was under 3.00.

As to `CC(C)C[C@H](NC(=O)[C@@H]1Cc2ccccc2CN1C(=O)[C@H](Cc1ccccc1)NC(=O)[C@@H](N)CO)C(=O)N[C@@H](CCCN=C(N)N)C(=O)N[C@@H](CC(N)=O)C(=O)O` (H-SF[Tic]LRN-OH), the pEC50 is 5.34.

Regarding `CC(C)C[C@H](NC(=O)[C@H](CC(C)C)NC(=O)[C@](C)(Cc1ccccc1)NC(=O)[C@@H](N)CO)C(=O)N[C@@H](CCCN=C(N)N)C(=O)N[C@@H](CC(N)=O)C(=O)O`, the pEC50 is 3.77.

With `CN[C@@H](Cc1ccccc1)C(=O)N[C@@H](CC(C)C)C(=O)N[C@@H](CC(C)C)C(=O)N[C@@H](CCCN=C(N)N)C(=O)N[C@@H](CC(N)=O)C(=O)O` (H-[NMeF]LLRN-OH), the pEC50 is under 3.00.

For `CC(C)C[C@H](NC(=O)[C@H](CC(C)C)N(C)C(=O)[C@H](Cc1ccccc1)NC(=O)[C@@H](N)CO)C(=O)N[C@@H](CCCN=C(N)N)C(=O)N[C@@H](CC(N)=O)C(=O)O`, the pEC50 is 4.15.

For `CC(C)C[C@H](NC(=O)[C@H]1CCCN1C(=O)[C@H](Cc1ccccc1)NC(=O)[C@@H](N)CO)C(=O)N[C@@H](CCCN=C(N)N)C(=O)N[C@@H](CC(N)=O)C(=O)O`, the pEC50 was 5.28.

As for `CC(C)C[C@H](NC(=O)[C@H](CC(C)C)NC(=O)[C@@H]1Cc2ccccc2CN1C(=O)[C@@H](N)CO)C(=O)N[C@@H](CCCN=C(N)N)C(=O)N[C@@H](CC(N)=O)C(=O)O` (H-S[Tic]LLRN-OH), the pEC50 is under 3.00.

As for `CC(C)C[C@H](NC(=O)[C@H](CC(C)C)NC(=O)[C@H](Cc1ccccc1)N(C)C(=O)[C@@H](N)CO)C(=O)N[C@@H](CCCN=C(N)N)C(=O)N[C@@H](CC(N)=O)C(=O)O`, the pEC50 is under 3.00.

Regarding `CC(C)C[C@H](NC(=O)[C@H](CC(C)C)NC(=O)[C@@H](NC(=O)[C@@H](N)CO)[C@H](C)c1ccccc1)C(=O)N[C@@H](CCCN=C(N)N)C(=O)N[C@@H](CC(N)=O)C(=O)O`, the pEC50 was 5.70.

With `CC(C)C[C@H](NC(=O)[C@H](CC(C)C)NC(=O)[C@@H](NC(=O)[C@@H](N)CO)[C@@H](C)c1ccccc1)C(=O)N[C@@H](CCCN=C(N)N)C(=O)N[C@@H](CC(N)=O)C(=O)O` (H-S[X3]LLRN-OH), the pEC50 is 4.57.

Turning to `CC(C)C[C@H](NC(=O)C(C)(C)NC(=O)[C@H](Cc1ccccc1)NC(=O)[C@@H](N)CO)C(=O)N[C@@H](CCCN=C(N)N)C(=O)N[C@@H](CC(N)=O)C(=O)O` (H-SF[Aib]LRN-OH), the pEC50 is under 3.00.
